Experimental data from patent publication US9725463B2, “Substituted heterocyclic compounds as CRAC modulators” (LUPIN LIMITED, priority 2013, dated 2017).

system: IL-2 secretion by Jurkat T cells; test: Inhibition of IL-2 secretion; assay type: cell-based; settings: Homo sapiens; Jurkat T cells stimulated with PHA, 20 to 24 hours, IL-2 by ELISA
Method: The CRAC channel modulatory activity of the compounds were thus evaluated by measuring the secretion of IL-2 by antigen stimulated T-cells in vitro. Alternatively, such activity can also be evaluated by assay methods known to one skilled in the art.
Inhibition of IL-2 secretion: Jurkat T cells were seeded at a density of 0.5 to 1 million cells per well in RPMI medium. Test compounds from this invention were added to the cells at different concentrations. This was followed by the addition of PHA, a T cell mitogen after 10 minutes. The cells were then incubated for 20 to 24 hours in a CO2 incubator at 37° C. After incubation with the compounds, cells were centrifuged, the supernatant was collected and processed for ELISA to quantitate the amount of IL-2 secreted. A commercial ELISA kit (R&D Systems, Inc. Minneapolis, Minn., USA) was used to estimate the IL-2 concentrations. Amount of IL-2 secreted by cells stimulated with PHA was considered as a 100% maximal signal and the decrease in amount of IL-2 secreted by cells treated with the test compounds was expressed as percent inhibition of the maximal signal. The dose response data was analyzed using 4-parametric sigmoidal dose response (variable slope) curve-fit.

IC50, 25 to 50 nM:
CN1C(=O)COc2cc(-c3cnc(NC(=O)c4c(F)cccc4Cl)cn3)c(C3CC3)cc21 [Example 117, 2-Chloro-N-(5-(6-cyclopropyl-4-methyl-3-oxo-3,4-dihydro-2H-benzo[b][1,4]oxazin-7-yl)pyrazin-2-yl)-6-fluorobenzamide]
CCc1cc2c(cc1-c1ccc(NC(=O)c3c(F)cccc3F)cc1)N(C)C(=O)CO2 [Example 132, N-(4-(7-Ethyl-4-methyl-3-oxo-3,4-dihydro-2H-benzo[b][1,4]oxazin-6-yl)phenyl)-2,6-difluorobenzamide]

IC50, 50 to 100 nM:
Cc1cc2c(cc1-c1ccc(NCc3c(F)cccc3F)cc1)OCC(=O)N2C [Example 127, 7-(4-((2,6-Difluorobenzyl)amino)phenyl)-4,6-dimethyl-2H-benzo [b][1,4]oxazin-3(4H)-one]
CN1C(=O)COc2cc(C3CC3)c(-c3ccc(NC(=O)c4c(F)cccc4F)cc3)cc21 [Example 131, N-(4-(7-Cyclopropyl-4-methyl-3-oxo-3,4-dihydro-2H-benzo[b][1,4]oxazin-6-yl)phenyl)-2,6-difluorobenzamide]

IC50, < 25 nM:
CN1C(=O)COc2cc(-c3ccc(NC(=O)c4c(F)cccc4F)nc3)c(C3CC3)cc21 [Example 115, N-(5-(6-Cyclopropyl-4-methyl-3-oxo-3,4-dihydro-2H-benzo[b][1,4]oxazin-7-yl)pyridin-2-yl)-2,6-difluorobenzamide]
CN1C(=O)COc2cc(-c3cnc(NC(=O)c4c(F)cccc4F)cn3)c(C3CC3)cc21 [Example 116, N-(5-(6-Cyclopropyl-4-methyl-3-oxo-3,4-dihydro-2H-benzo[b][1,4]oxazin-7-yl)pyrazin-2-yl)-2,6-difluorobenzamide]
CCc1cc2c(cc1-c1cnc(NC(=O)c3c(F)cccc3F)cn1)OCC(=O)N2C [Example 121, N-(5-(6-Ethyl-4-methyl-3-oxo-3,4-dihydro-2H-benzo[b][1,4]oxazin-7-yl)pyrazin-2-yl)-2,6-difluorobenzamide]
CCc1cc2c(cc1-c1ccc(NC(=O)c3c(F)cccc3F)nc1)OCC(=O)N2C [Example 122, N-(5-(6-Ethyl-4-methyl-3-oxo-3,4-dihydro-2H-benzo[b][1,4]oxazin-7-yl)pyridin-2-yl)-2,6-difluorobenzamide]
Cc1cc2c(cc1-c1ccc(NC(=O)c3c(F)cccc3F)cc1)OCC(=O)N2C [Example 123, N-(4-(4,6-Dimethyl-3-oxo-3,4-dihydro-2H-benzo[b][1,4]oxazin-7-yl)phenyl)-2,6-difluorobenzamide]
Cc1cc2oc(=O)n(C)c2cc1-c1ccc(C(=O)Nc2c(F)cccc2F)s1 [Example 140, N-(2,6-Difluorophenyl)-5-(3,6-dimethyl-2-oxo-2,3-dihydrobenzo[d]oxazol-5-yl)thiophene-2-carboxamide]

IC50, 100 to 500 nM:
CN1C(=O)COc2cc(-c3ccc(C(=O)Nc4c(F)cncc4F)cc3)c(C3CC3)cc21 [Example 119, 4-(6-Cyclopropyl-4-methyl-3-oxo-3,4-dihydro-2H-benzo[b][1,4]oxazin-7-yl)-N-(3,5-difluoropyridin-4-yl)benzamide]
Cc1cc2c(cc1-c1cnc(NC(=O)c3c(F)cccc3F)cn1)OCC(=O)N2C [Example 126, N-(5-(4,6-Dimethyl-3-oxo-3,4-dihydro-2H-benzo[b][1,4]oxazin-7-yl)pyrazin-2-yl)-2,6-difluorobenzamide]
CCc1cc2c(cc1-c1cnc(NC(=O)c3c(F)cccc3F)cn1)N(C)C(=O)CO2 [Example 133, N-(5-(7-Ethyl-4-methyl-3-oxo-3,4-dihydro-2H-benzo[b][1,4]oxazin-6-yl)pyrazin-2-yl)-2,6-difluorobenzamide]
CCc1cc2c(cc1-c1ccc(C(=O)Nc3c(F)cncc3F)cc1)N(C)C(=O)CO2 [Example 135, N-(3,5-Difluoropyridin-4-yl)-4-(7-ethyl-4-methyl-3-oxo-3,4-dihydro-2H-benzo[b][1,4]oxazin-6-yl)benzamide]
